Measured values: patent US8163909B2, “Substituted hydroxyethyl amine compounds as beta-secretase modulators and methods of use” (Amgen Inc., priority 2007, dated 2012)
Where two headings read alike, the source gives them in different places.

Key:
CYP2D6 = CYP2D6 (Homo sapiens, UniProt P10635); assay: CYP2D6 inhibition assay (bufuralol, pooled human liver microsomes)
CYP3A4 (CYP3A) = CYP3A4 (CYP3A) (Homo sapiens, UniProt P08684); assay: in vitro; details: microsomes, pH 7.4;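 note: inhibition of CYP3A-mediated 1-hydroxymidazolam formation after 10 min incubation with NADPH, quantified by HPLC MS relative to metabolite produced without test compound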
[1] = Microsomal stability assay, rat liver microsomes;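 note: rat liver microsomes (0.25 mg/mL) with about 1 µM compound plus 1 mM NADPH, pH 7.4, 37 °C for 30 min, parent left measured by LC-MS/MS against 0 min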
[2] = Microsomal stability assay, human liver microsomes;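 note: pooled human liver microsomes at 0.25 mg/mL with 1 µM compound and NADPH at 37 °C, pH 7.4, for 30 min, unchanged parent quantified by LC-MS/MS against the 0 min sample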
[3] = biological target: Beta Secretase enzyme (BACE) (Homo sapiens, UniProt P56817); assay: In vitro enzymatic BACE FRET (fluorescence resonance energy transfer) assay; type: biochemical;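 note: fluorescence read after 1 h with 50 nM quenched peptide substrate spanning the BACE cleavage site, in pH 4.2 acetate buffer containing 10% DMSO and nonionic detergent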
[4] = test system: Aβ40 in conditioned medium of cells stably expressing Amyloid Precursor Protein (APP); assay: In vitro BACE cell-based assay (Aβ40 in conditioned medium, sandwich ELISA);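 note: compounds added as a dilution series, secreted peptide quantified by europium time-resolved fluorescence readout, potency fitted from percent of control versus compound concentration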
[5] = read-out: BACE1 FRET assay (IC50)
[6] = Homo sapiens, HEK293, HEK cells, read-out: HEK cell assay (IC50)
[7] = 2D6 IC50 (uM), CYP enzyme inhibition
[8] = BACE enzyme assay, read-out: BACE1 FRET assay
[9] = Homo sapiens, HEK293, HEK cells, read-out: HEK cell assay
[10] = 2D6 IC50 (uM), CYP2D6 inhibition
[11] = BACE enzyme assay IC50, read-out: BACE1 FRET assay
[12] = Homo sapiens, HEK293, HEK cell-based assay IC50, read-out: HEK cell assay
[13] = 2D6 IC50, CYP enzyme inhibition
[14] = BACE enzyme assay, IC50's in uM, read-out: BACE1 FRET assay
[15] = Homo sapiens, HEK293, cell-based assay, HEK cells, IC50's in uM, read-out: HEK cell assay
[16] = Table 2, read-out: BACE1 FRET assay
[17] = Homo sapiens, HEK293, Table 2, HEK cells, read-out: HEK cell assay
[18] = Homo sapiens, HEK293, HEK cell-based assay, IC50's in uM, read-out: HEK cell assay

CYP3A4 (CYP3A), sequence (P08684 2-503): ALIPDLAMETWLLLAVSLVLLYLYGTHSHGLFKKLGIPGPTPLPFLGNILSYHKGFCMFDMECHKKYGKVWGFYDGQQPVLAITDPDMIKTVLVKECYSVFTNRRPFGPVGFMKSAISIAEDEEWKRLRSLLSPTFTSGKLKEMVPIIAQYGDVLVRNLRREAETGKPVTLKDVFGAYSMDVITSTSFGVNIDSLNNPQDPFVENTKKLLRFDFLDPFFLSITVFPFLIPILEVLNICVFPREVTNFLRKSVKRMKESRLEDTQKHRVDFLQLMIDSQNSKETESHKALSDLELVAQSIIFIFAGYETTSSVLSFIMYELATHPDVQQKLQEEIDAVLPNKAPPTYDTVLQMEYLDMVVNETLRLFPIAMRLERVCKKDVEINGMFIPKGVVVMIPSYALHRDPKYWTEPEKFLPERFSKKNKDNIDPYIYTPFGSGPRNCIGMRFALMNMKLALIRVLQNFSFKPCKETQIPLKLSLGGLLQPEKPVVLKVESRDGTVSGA
CYP2D6, sequence (P10635 whole entry): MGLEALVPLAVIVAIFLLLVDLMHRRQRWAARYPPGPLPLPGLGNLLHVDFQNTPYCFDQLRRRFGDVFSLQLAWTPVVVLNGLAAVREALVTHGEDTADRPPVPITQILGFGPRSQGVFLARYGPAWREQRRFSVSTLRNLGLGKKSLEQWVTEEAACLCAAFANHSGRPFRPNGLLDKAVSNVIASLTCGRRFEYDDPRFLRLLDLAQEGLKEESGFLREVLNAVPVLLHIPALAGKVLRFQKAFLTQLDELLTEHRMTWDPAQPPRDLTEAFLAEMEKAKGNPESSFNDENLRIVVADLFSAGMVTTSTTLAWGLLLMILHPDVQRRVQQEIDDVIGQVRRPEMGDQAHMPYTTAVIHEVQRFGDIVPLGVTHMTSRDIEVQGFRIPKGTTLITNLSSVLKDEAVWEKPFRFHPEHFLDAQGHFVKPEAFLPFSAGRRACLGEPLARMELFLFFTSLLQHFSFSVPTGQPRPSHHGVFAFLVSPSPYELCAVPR
Beta Secretase enzyme (BACE), sequence (P56817 46-501): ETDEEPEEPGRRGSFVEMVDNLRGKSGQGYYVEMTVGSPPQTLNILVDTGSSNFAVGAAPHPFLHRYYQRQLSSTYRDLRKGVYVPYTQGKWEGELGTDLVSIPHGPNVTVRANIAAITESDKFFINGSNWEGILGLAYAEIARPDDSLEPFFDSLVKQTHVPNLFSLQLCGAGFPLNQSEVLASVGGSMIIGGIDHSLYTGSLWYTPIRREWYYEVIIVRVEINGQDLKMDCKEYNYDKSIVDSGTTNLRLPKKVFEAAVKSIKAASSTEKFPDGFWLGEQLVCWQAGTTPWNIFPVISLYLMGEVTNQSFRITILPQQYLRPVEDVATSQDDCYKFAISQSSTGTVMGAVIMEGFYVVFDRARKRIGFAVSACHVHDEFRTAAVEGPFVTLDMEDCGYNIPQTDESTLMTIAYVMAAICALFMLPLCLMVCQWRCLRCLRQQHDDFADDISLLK

Row | SMILES | IC50 (CYP3A4 (CYP3A)) | RLM ([1]; rat liver microsomes) | HLM ([2]; human liver microsomes) | IC50 (CYP2D6; [7]) | RLM ([1]; rat liver microsomal data) | HLM ([2]; human liver microsomal data) | IC50 (CYP2D6; [13]) | further results
1 | CC(=O)N[C@@H](Cc1cccc(-n2ccnc2)c1)[C@H](O)CN[C@H]1CC2(CCC2)Oc2ncc(CC(C)(C)C)cc21 [compound 615, N-((1S,2R)-3-(((4′S)-6′-(2,2-dimethylpropyl)-3′,4′-dihydrospiro[cyclobutane-1,2′-pyrano[2,3-b]pyridin]-4′-yl)amino)-2-hydroxy-1-(3-(1H-imidazol-1-yl)benzyl)propyl)acetamide] | 160 nM | 32 µL/min/mg | 59 µL/min/mg |  |  |  |  | IC50 (CYP2D6; 2D6 IC50, CYP2D6 inhibition): 0.16 µM; IC50 [3, 5]: 0.06 µM; IC50 [4, 6]: 0.007 µM
2 | CO[C@H](C)C(=O)N[C@@H](Cc1cc(F)cc(F)c1)[C@H](O)CN[C@H]1CC2(CCC2)Oc2ncc(CC(C)(C)C#N)cc21 [compound 511] | 2400 nM |  |  | 14.5 µM | 203 µL/min/mg | 382 µL/min/mg |  | IC50 [3, 8]: 0.007 µM; IC50 [4, 9]: 0.011 µM
3 | CO[C@H](C)C(=O)N[C@@H](Cc1cc(F)cc(-c2nccs2)c1)[C@H](O)CN[C@H]1CC2(CCC2)Oc2ncc(CC(C)(C)F)cc21 [compound 742] | 700 nM | 42 µL/min/mg | 39.5 µL/min/mg |  |  |  |  | IC50 (CYP2D6; [10]): 0.95 µM; IC50 [3, 11]: 0.084 µM; IC50 [4, 12]: 0.045 µM
4 | CCOCC(=O)N[C@@H](Cc1cccc(-c2nccs2)c1)[C@H](O)CN[C@H]1CC2(CCC2)Oc2ncc([C@@H]3CC3(C)C)cc21 [compound 914, N-((1S,2R)-3-(((4′S)-6′-((1R)-2,2-dimethylcyclopropyl)-3′,4′-dihydrospiro[cyclobutane-1,2′-pyrano[2,3-b]pyridin]-4′-yl)amino)-2-hydroxy-1-(3-(1,3-thiazol-2-yl)benzyl)propyl)-2-ethoxyacetamide] | 200 nM |  |  |  | 61 µL/min/mg | 57 µL/min/mg | 0.2 µM | IC50 [3, 14]: 0.002 µM; IC50 [4, 15]: 0.008 µM
5 | CC(C)(C)Cc1cnc2c(c1)[C@@H](NC[C@@H](O)[C@H](Cc1cccc(-c3nccs3)c1F)NC(=O)[C@@H]1CCCO1)CC1(CCC1)O2 [compound 910] | 100 nM |  |  |  | 153 µL/min/mg | 147 µL/min/mg | 2.4 µM | IC50 [3, 14]: 0.079 µM; IC50 [4, 15]: 0.079 µM
6 | COCC(=O)N[C@@H](Cc1cccc(F)c1)[C@H](O)CN[C@H]1CC2(CCC2)Oc2c1cc(CC(C)(C)OC)cc2-n1ccnc1.O=C(O)C(F)(F)F [Example 423] | 100 nM | 132 µL/min/mg | 35 µL/min/mg |  |  |  |  | IC50 (CYP2D6; 2D6 IC50, CYP2D6 inhibition): 0.3 µM; IC50 [3, 5]: 0.579 µM; IC50 [4, 6]: 0.063 µM
7 | COCC(=O)N[C@@H](Cc1ccc2c(c1)OCO2)[C@H]1CN([C@H]2CC3(CCC3)Oc3ncc([C@H](F)C(C)(C)C)cc32)C(=O)O1 [compound 446] | 200 nM |  |  |  | 106 µL/min/mg | 150 µL/min/mg | 1.2 µM | IC50 [3, 16]: 6.32 µM; IC50 [4, 17]: > 10 µM
8 | COCC(=O)N[C@@H](Cc1cc(F)cc(-c2nccs2)c1)[C@H](O)CN[C@H]1CC2(CCC2)Oc2cnc(CC(C)(C)F)cc21 [compound 718, N-((1S,2R)-3-(((4′S)-6′-(2-fluoro-2-methylpropyl)-3′,4′-dihydrospiro[cyclobutane-1,2′-pyrano[2,3-c]pyridin]-4′-yl)amino)-1-(3-fluoro-5-(1,3-thiazol-2-yl)benzyl)-2-hydroxypropyl)-2-methoxyacetamide] | 300 nM | 140 µL/min/mg | 113 µL/min/mg |  |  |  |  | IC50 (CYP2D6; [10]): 0.5 µM; IC50 [3, 11]: 0.051 µM; IC50 [4, 12]: 0.062 µM
9 | CO[C@H](C)C(=O)N[C@@H](Cc1cc(F)cc(-c2nccs2)c1)[C@H](O)CN[C@H]1CC2(CCC2)Oc2c1cc(CC(C)C)nc2Cl [compound 752] | 100 nM | 137 µL/min/mg | 166 µL/min/mg |  |  |  |  | IC50 (CYP2D6; [10]): 1.3 µM; IC50 [3, 11]: 0.009 µM; IC50 [4, 12]: 0.067 µM
10 | COCC(=O)N[C@@H](Cc1cc(Br)cc(-c2nccs2)c1)[C@H](O)CN[C@H]1CC2(CCC2)Oc2ncc(CC(C)(C)C)cc21 [compound 851] | 200 nM |  |  |  | 59 µL/min/mg | 71 µL/min/mg | 0.7 µM | IC50 [3, 14]: 0.013 µM; IC50 [4, 15]: 0.057 µM
11 | C#Cc1cc2c(c(-n3ccnc3)c1)OC1(CCC1)C[C@@H]2NC[C@@H](O)[C@H](Cc1cc(F)cc(F)c1)NC(=O)COC [compound 689] | ≤ 30 nM | 44.5 µL/min/mg | 18.5 µL/min/mg |  |  |  |  | IC50 (CYP2D6; [10]): 0.2 µM; IC50 [3, 11]: 0.038 µM; IC50 [4, 12]: 0.027 µM
12 | CO[C@H](C)C(=O)N[C@@H](Cc1cccc(F)c1)[C@H](O)CN[C@H]1CC2(CCC2)Oc2c(-c3cscn3)cc(CC(C)C)cc21 [compound 524] | 500 nM |  |  | 7.5 µM | 472 µL/min/mg | 492 µL/min/mg |  | IC50 [3, 8]: 0.008 µM; IC50 [4, 9]: 0.065 µM
13 | C#Cc1cccc(C[C@H](NC(=O)COC)[C@H](O)CN[C@H]2C[C@@]3(CCOC3)Oc3ncc(CC(C)(C)C)cc32)c1 [compound 825, N-((1S,2R)-3-(((3S,4′S)-6′-(2,2-dimethylpropyl)-3′,4,4′,5-tetrahydrospiro[furan-3,2′-pyrano[2,3-b]pyridin]-4′-yl)amino)-1-(3-ethynylbenzyl)-2-hydroxypropyl)-2-methoxyacetamide] | 100 nM |  |  | 7.3 µM | 85 µL/min/mg | 17 µL/min/mg |  | IC50 [3, 14]: 0.005 µM; IC50 [4, 18]: 0.009 µM
14 | C#Cc1cccc(C[C@H](NC(=O)C(OC)OC)[C@H](O)CN[C@H]2CC3(CCC3)Oc3ncc(CC(C)(F)F)cc32)c1 [compound 830] | 100 nM |  |  | 1.3 µM | 35 µL/min/mg | 28 µL/min/mg |  | IC50 [3, 14]: 0.007 µM; IC50 [4, 18]: 0.023 µM
15 | CC(=O)N[C@@H](Cc1ccc(F)cc1)[C@H](O)CN[C@H]1CC2(CCC2)Oc2ncc(C(F)(F)C(C)(C)C)cc21 [compound 570] | 800 nM |  |  | 7.1 µM | 162 µL/min/mg | 101 µL/min/mg |  | IC50 [3, 8]: 0.136 µM; IC50 [4, 9]: 0.405 µM
16 | Cc1ccc(CN2CCO[C@H](C(=O)N[C@@H](Cc3ccc(F)cc3)[C@H](O)CN[C@H]3CC4(CCC4)Oc4ncc(CC(C)(C)C)cc43)C2)cc1 [compound 708] | 200 nM | 278 µL/min/mg | 310 µL/min/mg |  |  |  |  | IC50 (CYP2D6; [10]): 6.8 µM; IC50 [3, 11]: 0.154 µM; IC50 [4, 12]: 0.257 µM
17 | COCC(=O)N[C@@H](Cc1cc(F)cc(F)c1)[C@H](O)CN[C@H]1CC2(CCC2)Oc2c(-c3cnc[nH]3)cc(CC(C)C)cc21 [compound 480] | 500 nM |  |  |  | 405 µL/min/mg | 272 µL/min/mg | 10.1 µM | IC50 [3, 16]: 0.023 µM; IC50 [4, 17]: 0.006 µM
18 | COCC(=O)N[C@@H](Cc1ccc2c(c1)OCO2)[C@H](O)CN[C@H]1CC2(CCC2)Oc2ccc(C[C@@H](C)F)cc21 [compound 498] | 500 nM |  |  | 0.7 µM | 206 µL/min/mg | 119 µL/min/mg |  | IC50 [3, 8]: 0.268 µM; IC50 ([4]; HEK cells, read-out: HEK cell assay): 0.377 µM
19 | CO[C@@H](C)C(=O)N[C@@H](Cc1ccc2c(c1)OCO2)[C@H](O)CN[C@H]1CC2(CCC2)Cc2sc(CC(C)(C)C)cc21 [compound 456] | 900 nM |  |  |  | 97 µL/min/mg | 74 µL/min/mg | 3.1 µM | IC50 [3, 16]: 0.359 µM; IC50 [4, 17]: 0.723 µM
